System: anesthetized open-chest dogs
Assay: Hemodynamics of anesthetized open-chest dogs, intravenous infusion
Assay type: in vivo, mongrel dogs
Experimental: The animals were anesthetized by intravenous injection of 30 mg/kg sodium pentobarbital, tracheally intubated, and mechanically ventilated with positive air pressure. Left thoracotomy was performed through the fourth intercostal space and the heart was suspended in a pericardial cradle, the aortic root was isolated and a probe of blood flow meter (12 or 14 mm in diameter) was fixed to measure the aortic blood flow as a representation of cardiac output (CO), the circumflex branch of left coronary artery was isolated and a probe of blood flow meter (2 or 2.5 mm in diameter) was fixed to measure the coronary blood flow (CBF). A polyethylene catheter filled with heparin physiological saline was inserted through cardiac apex into the left ventricle to measure the left ventricular pressure (LVP) and left ventricular end-diastolic pressure (LVEDP), Peak positive and peak negative first derivatives of the LVP (+ LVdp/dt and − LVdp/dt) were calculated with the Acknowledge software. The systolic blood pressure (SBP), diastolic blood pressure (DBP) and mean arterial pressure (MAP) were measured by polyethylene catheter via the femoral artery, ECG □ was measured by a AC-601G ECG amplifier. The above-mentioned analog signal was input into a data acquisition workstation (MP100, BIOPAC Systems, USA) to a computer running Acknowledge (version 3.7.1).
After surgery, various indexes before administration were recorded until the indexes were stable, and then intravenous infusion administration was conducted. Thirty dogs were divided into five groups (six dogs in each group), the experiment groups were given 0.15, 0.3, 0.6 mg/kg of ASP-[…] respectively, the normal control group was given 1 ml/kg of solvent, and the positive control group was given 0.3 mg/kg of astragaloside IV. The delivery volumes were 15 ml for each dog was and the delivery velocity was 1 ml/min. The indexes were recorded at 5, 10, 15, 20, 30, 45, 60, 90 and 120 mins after drug administration. At the end of experiment, the hearts were excised and weighted. The myocardial blood flow for per hectogram (CF), coronary resistance (CR), cardiac index (CI), left ventricular work (LVW) and total peripheral resistance (TPR) were calculated according to the following formulae: CF=CBF×[…]/heart weight CR=MAP/CF CI=CO/0.11×(body weight)^2/3 LVW=CO×(MAP−5)×1.052×0.0136 TPR=MAP×79.92/CO
Data are expressed as mean±SD ( x±s), the paired t-test was used to compare the significance between before and after administration, the unpaired t-test was adopted for comparison between groups.

[1] = 0.15 mg/kg iv, 90 min after administration
[2] = 0.15 mg/kg iv, 120 min after administration
[3] = 0.15 mg/kg iv, before administration
[4] = 0.3 mg/kg iv, 5 min after administration
[5] = 0.3 mg/kg iv, 10 min after administration
[6] = 0.3 mg/kg iv, 15 min after administration
[7] = 0.3 mg/kg iv, 20 min after administration
[8] = 0.3 mg/kg iv, 30 min after administration

CC(C)(O)[C@@H]1CC[C@](C)([C@H]2[C@@H](O)C[C@@]3(C)C4C[C@H](OC5OC(CO)C(O)C(O)C5O)C5C(C)(C)[C@@H](O)CC[C@@]56C[C@@]46CC[C@]23C)O1 (stereo partly drawn) [CMG, Cycloastragenol-6-O-β-D-glucoside]
CO change vs before administration [1]: (−0.15 ± 0.24) L/min | CR [1]: 1.36 ± 0.37 mmHg/ml/min/100 g | CR change vs before administration [1]: (0.00 ± 0.24) mmHg/ml/min/100 g | LVEDP [1]: 1.4 ± 2.4 mmHg | LVEDP change vs before administration [1]: (−0.40 ± 0.43) mmHg | LVP [1]: 101 ± 18 mmHg | LVP change vs before administration [1]: (−3.5 ± 7.6) mmHg | LVW [1]: 0.96 ± 0.24 kg · m | LVW change vs before administration [1]: (−0.16 ± 0.34) kg · m | TPR [1]: 5576 ± 2153 dyn · s/cm^5 | TPR change vs before administration [1]: (426 ± 770) dyn · s/cm^5 | dp/dt [1]: 1121 ± 412 mmHg/s | dp/dt change vs before administration [1]: (−28 ± 90) mmHg/s | −dp/dt [1]: −857 ± 243 mmHg/s | −dp/dt change vs before administration [1]: (31 ± 128) mmHg/s | CF [2]: 56.5 ± 16.6 ml/min/100 g | CF change vs before administration [2]: (−1.2 ± 13.7) ml/min/100 g | CI [2]: 1.79 ± 0.37 L/min/m^2 | CI change vs before administration [2]: (−0.29 ± 0.45) L/min/m^2 | CO [2]: 1.03 ± 0.19 L/min | CO change vs before administration [2]: (−0.17 ± 0.28) L/min | CR [2]: 1.35 ± 0.44 mmHg/ml/min/100 g | CR change vs before administration [2]: (−0.01 ± 0.25) mmHg/ml/min/100 g | LVEDP [2]: 1.6 ± 2.3 mmHg | LVEDP change vs before administration [2]: (−0.15 ± 0.44) mmHg | LVP [2]: 103 ± 22 mmHg | LVP change vs before administration [2]: (−1.8 ± 8.1) mmHg | LVW [2]: 0.99 ± 0.36 kg · m | LVW change vs before administration [2]: (−0.13 ± 0.37) kg · m | TPR [2]: 5734 ± 1774 dyn · s/cm^5 | TPR change vs before administration [2]: (584 ± 1030) dyn · s/cm^5 | dp/dt [2]: 1138 ± 387 mmHg/s | dp/dt change vs before administration [2]: (−11 ± 92) mmHg/s | −dp/dt [2]: −897 ± 263 mmHg/s | −dp/dt change vs before administration [2]: (−9 ± 176) mmHg/s | CF [3]: 57.7 ± 24.1 ml/min/100 g | CI [3]: 2.08 ± 0.63 L/min/m^2 | CO [3]: 1.21 ± 0.38 L/min | CR [3]: 1.35 ± 0.44 mmHg/ml/min/100 g | LVEDP [3]: 1.8 ± 2.2 mmHg | LVP [3]: 105 ± 22 mmHg | LVW [3]: 1.12 ± 0.42 kg · m | TPR [3]: 5150 ± 2321 dyn · s/cm^5 | dp/dt [3]: 1150 ± 391 mmHg/s | −dp/dt [3]: −888 ± 310 mmHg/s | ±LVdp/dtmax (0.15 mg/kg iv, within 120 min): no significant change | LVEDP maximum decrease (0.3 mg/kg iv): 1.5±0.8 mmHg | CF [4]: 51.7 ± 20.7 ml/min/100 g | CF change vs before administration [4]: (1.5 ± 5.3) ml/min/100 g | CI [4]: 2.09 ± 0.86 L/min/m^2 | CI change vs before administration [4]: (0.11 ± 0.16) L/min/m^2 | CO [4]: 1.16 ± 0.39 L/min | CO change vs before administration [4]: (0.06 ± 0.09) L/min | CR [4]: 1.57 ± 0.74 mmHg/ml/min/100 g | CR change vs before administration [4]: (0.04 ± 0.17) mmHg/ml/min/100 g | LVEDP [4]: 1.3 ± 2.5 mmHg | LVEDP change vs before administration [4]: (−0.39 ± 0.38) mmHg | LVP [4]: 107 ± 21 mmHg | LVP change vs before administration [4]: (4.1 ± 4.9) mmHg | LVW [4]: 1.12 ± 0.49 kg · m | LVW change vs before administration [4]: (0.10 ± 0.07) kg · m | TPR [4]: 5248 ± 1878 dyn · s/cm^5 | TPR change vs before administration [4]: (−52 ± 829) dyn · s/cm^5 | dp/dt [4]: 1308 ± 448 mmHg/s | dp/dt change vs before administration [4]: (47 ± 34) mmHg/s | −dp/dt [4]: −958 ± 313 mmHg/s | −dp/dt change vs before administration [4]: (−37 ± 44) mmHg/s | CF [5]: 53.5 ± 21.1 ml/min/100 g | CF change vs before administration [5]: (3.3 ± 3.2) ml/min/100 g | CI [5]: 1.96 ± 0.85 L/min/m^2 | CI change vs before administration [5]: (−0.03 ± 0.23) L/min/m^2 | CO [5]: 1.09 ± 0.39 L/min | CO change vs before administration [5]: (−0.01 ± 0.14) L/min | CR [5]: 1.50 ± 0.71 mmHg/ml/min/100 g | CR change vs before administration [5]: (−0.03 ± 0.12) mmHg/ml/min/100 g | LVEDP [5]: 1 ± 2.4 mmHg | LVEDP change vs before administration [5]: (−0.75 ± 0.34) mmHg | LVP [5]: 106 ± 22 mmHg | LVP change vs before administration [5]: (2.3 ± 6.9) mmHg | LVW [5]: 1.02 ± 0.44 kg · m | LVW change vs before administration [5]: (0.00 ± 0.15) kg · m | TPR [5]: 5683 ± 2354 dyn · s/cm^5 | TPR change vs before administration [5]: (384 ± 1293) dyn · s/cm^5 | dp/dt [5]: 1358 ± 444 mmHg/s | dp/dt change vs before administration [5]: (97 ± 68) mmHg/s | −dp/dt [5]: −925 ± 299 mmHg/s | −dp/dt change vs before administration [5]: (−4 ± 80) mmHg/s | CF [6]: 51.3 ± 21.1 ml/min/100 g | CF change vs before administration [6]: (1.1 ± 4.2) ml/min/100 g | CI [6]: 1.98 ± 0.84 L/min/m^2 | CI change vs before administration [6]: (−0.01 ± 0.28) L/min/m^2 | CO [6]: 1.10 ± 0.38 L/min | CO change vs before administration [6]: (0.00 ± 0.17) L/min | CR [6]: 1.56 ± 0.76 mmHg/ml/min/100 g | CR change vs before administration [6]: (0.02 ± 0.15) mmHg/ml/min/100 g | LVEDP [6]: 0.7 ± 2.6 mmHg | LVEDP change vs before administration [6]: (−1.06 ± 0.54) mmHg | LVP [6]: 106 ± 20 mmHg | LVP change vs before administration [6]: (2.3 ± 5.4) mmHg | LVW [6]: 1.02 ± 0.44 kg · m | LVW change vs before administration [6]: (0.00 ± 0.16) kg · m | TPR [6]: 5535 ± 2356 dyn · s/cm^5 | TPR change vs before administration [6]: (236 ± 1386) dyn · s/cm^5 | dp/dt [6]: 1367 ± 470 mmHg/s | dp/dt change vs before administration [6]: (106 ± 54) mmHg/s | −dp/dt [6]: −947 ± 308 mmHg/s | −dp/dt change vs before administration [6]: (−25 ± 74) mmHg/s | CF [7]: 51.4 ± 19.2 ml/min/100 g | CF change vs before administration [7]: (1.2 ± 4.0) ml/min/100 g | CI [7]: 1.94 ± 0.81 L/min/m^2 | CI change vs before administration [7]: (−0.04 ± 0.11) L/min/m^2 | CO [7]: 1.08 ± 0.36 L/min | CO change vs before administration [7]: (−0.02 ± 0.06) L/min | CR [7]: 1.51 ± 0.68 mmHg/ml/min/100 g | CR change vs before administration [7]: (−0.02 ± 0.14) mmHg/ml/min/100 g | LVEDP [7]: 0.6 ± 2.5 mmHg | LVEDP change vs before administration [7]: (−1.16 ± 0.89) mmHg | LVP [7]: 104 ± 23 mmHg | LVP change vs before administration [7]: (1.2 ± 6.9) mmHg | LVW [7]: 1.02 ± 0.47 kg · m | LVW change vs before administration [7]: (0.00 ± 0.05) kg · m | TPR [7]: 5513 ± 1980 dyn · s/cm^5 | TPR change vs before administration [7]: (214 ± 869) dyn · s/cm^5 | dp/dt [7]: 1348 ± 487 mmHg/s | dp/dt change vs before administration [7]: (87 ± 77) mmHg/s | −dp/dt [7]: −937 ± 289 mmHg/s | −dp/dt change vs before administration [7]: (−16 ± 91) mmHg/s | CF [8]: 51.4 ± 24.5 ml/min/100 g | CF change vs before administration [8]: (1.2 ± 6.2) ml/min/100 g | CI [8]: 1.92 ± 0.78 L/min/m^2 | CI change vs before administration [8]: (−0.06 ± 0.30) L/min/m^2 | CO [8]: 1.07 ± 0.36 L/min | CO change vs before administration [8]: (−0.03 ± 0.18) L/min | CR [8]: 1.51 ± 0.74 mmHg/ml/min/100 g | CR change vs before administration [8]: (−0.02 ± 0.09) mmHg/ml/min/100 g | LVEDP [8]: 0.6 ± 2.4 mmHg | LVEDP change vs before administration [8]: (−1.11 ± 0.87) mmHg | LVP [8]: 102 ± 23 mmHg | LVP change vs before administration [8]: (−1.3 ± 4.7) mmHg | LVW [8]: 0.97 ± 0.46 kg · m | LVW change vs before administration [8]: (−0.05 ± 0.13) kg · m | TPR [8]: 5318 ± 2153 dyn · s/cm^5 | TPR change vs before administration [8]: (19 ± 1444) dyn · s/cm^5 | dp/dt [8]: 1304 ± 459 mmHg/s | dp/dt change vs before administration [8]: (43 ± 100) mmHg/s | −dp/dt [8]: −885 ± 293 mmHg/s

— US8835134B2, “Cycloastragenol monoglucoside, preparation, pharmaceutical composition and application thereof” (Tianjin Institute of Pharmaceutical Research, priority 2007, dated 2014)
